Measurements from article PMC4055595, “Pharmacokinetic Compatibility of Ginsenosides and Schisandra Lignans in Shengmai-san: From the Perspective of P-Glycoprotein” (PLoS ONE, 2014).

Key:
[1] = tested on: Caco-2 cell monolayer; test: Transport of digoxin and ginsenosides across Caco-2 cell monolayer (efflux ratio); type: in vitro ADME, human; settings: for Effect of verapamil on efflux ratio: Caco-2 cells, 10 µM verapamil; for Effect of SLE on BL-AP transport / efflux ratio: Caco-2 monolayer, SLE 2.0 and 10.0 µg/mL
Procedure: Caco-2 cells were purchased from American Type Culture Collection (Manassas, VA), and were routinely cultured in Dulbecco's modified Eagle's medium supplemented with 10% fetal bovine serum, 1% nonessential amino acids, 1 mM sodium pyruvate, and 100 U/mL penicillin and streptomycin (Invitrogen, Carlsbad, CA). The cells were grown in an atmosphere of 5% CO2 at 37°C, and cell medium was changed every other day. Cells were seeded at a density of 4×10^4 cells per well in 24-well microporous polycarbonate insert filter plates (0.4-µm pore size) (Corning Costar plates; Corning Life Sciences, Lowell, MA) and grown for 15 days in Caco-2 growth medium. The medium was replaced every 3 to 4 days. Before running the assay, the culture medium was replaced by HBSS buffer supplemented with 10 mM Hepes and 20 mM glucose.
Caco-2 cells with a density of 1.2×10^5 cells/insert were seeded on a permeable polycarbonate insert (Millicell cell culture inserts, 0.4 µm pore size, 12 mm diameter; Millipore Corporation) in 24-well tissue culture plates and were used for the experiment 18 to 21 days after seeding. [^14C]Mannitol permeability and transepithelial electrical resistance measurements (Millicell-ERS epithelial volt-ohm meter; Millipore Corporation) were used to evaluate the integrity of Caco-2 cell monolayer. The monolayer used in transport studies had transepithelial electrical resistance values exceeding 600 Ω·cm^2, and the leakage of mannitol was less than 0.3% of the dose/h. Before transport initiation studies, the cell monolayer was first washed with warm HBSS (pH 7.4) twice. HBSS containing SLE (2.0 and 10.0 µg/mL) or 1% ethanol (control) was then loaded into both apical and basolateral chambers. After incubation at 37°C for 1.5 h, 100 µg/mL of GE was added to either the apical or basolateral side to evaluate the transport in absorptive and secretory directions, and the cell monolayer was incubated for another 2 h. 10 µM verapamil was used as a positive control inhibitor. At the designated time point, samples were taken from the receiving chamber for analysis. Ginsenosides were determined by LC-MS. All experiments were conducted in triplicate.
For the transport assay, the apparent permeability (P app, cm/s) in each direction (A→B and B→A) was calculated as follows, where A is the surface area of the membrane inserts (0.0804 cm^2), C 0 is the initial concentration of the compound applied in the donor compartment (2 µM), and △Q is the amount (micromoles) of compound transported over time △t (5 h = 18,000 s): [drawing 1]
The efflux ratio (ER) was a dimensionless number calculated as the ratio of the apparent permeability in the B→A direction divided by the apparent permeability in the A→B direction. [drawing 2]

[2] = tested on: P-gp; set-up: method as in PMID 16557452; settings: Caco-2 cell monolayer; cited from earlier work

Compound | Effect of verapamil on efflux ratio [1] | Effect of SLE on BL-AP transport / efflux ratio [1] | Transport by P-gp [2]
CC(C)=CCC[C@](C)(O[C@@H]1O[C@H](CO[C@@H]2O[C@H](CO)[C@@H](O)[C@H](O)[C@H]2O)[C@@H](O)[C@H](O)[C@H]1O)[C@H]1CC[C@]2(C)[C@@H]1[C@H](O)C[C@@H]1[C@@]3(C)CC[C@H](O[C@@H]4O[C@H](CO)[C@@H](O)[C@H](O)[C@H]4O[C@@H]4O[C@H](CO)[C@@H](O)[C@H](O)[C@H]4O)C(C)(C)[C@@H]3CC[C@]12C [Rb1, ginsenoside Rb1] | decreased significantly | concentration dependently decrease | not be transported by P-gp
CC(C)=CCC[C@](C)(O[C@@H]1O[C@H](CO)[C@@H](O)[C@H](O)[C@H]1O)[C@H]1CC[C@]2(C)[C@@H]1[C@H](O)C[C@@H]1[C@@]3(C)CC[C@H](O[C@@H]4O[C@H](CO)[C@@H](O)[C@H](O)[C@H]4O[C@@H]4O[C@H](CO)[C@@H](O)[C@H](O)[C@H]4O)C(C)(C)[C@@H]3CC[C@]12C [Rd, ginsenoside Rd] | decreased significantly | concentration dependently decrease | –
